Assay [1] relates to cultured human mast cells (CHMC). Kind of assay: CHMC low cell density IgE activation: tryptase assay. The note with it: anti-IgE. The format is cell-based. The essentials:
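Degranulation was triggered with anti-IgE for 30 minutes at 37° C in cultured human mast cells seeded at low density (1000-1500 cells/well, chosen by donor) after a 1 hr equilibration in MT buffer. Released tryptase in cleared supernatant was quantified with a tryptase substrate at room temperature for 30 minutes.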

Assay [2] has the same test system. Kind of assay: CHMC low cell density ionomycin activation: tryptase assay. Type of assay: cell-based.

This passage reports IC50 results from patent publication US9499493B2, “2,4-pyrimidinediamine compounds and their uses” (Rigel Pharmaceuticals, Inc., priority 2002, dated 2016).

By IC50 is commonly meant the midpoint of a concentration-inhibition curve.

Where a name gives a salt, the structure may show the parent alone.

As for `O=C1OCc2ccc(Nc3ncc(F)c(Nc4ccc5c(c4)OCCO5)n3)cc21` [R926786, N2-(1,1-Dihydroisobenzofuran-1-one-6-yl)-N4-(3,4-ethylenedioxyphenyl)-5-fluoro-2,4-pyrimidinediamine], the IC50 in assay [1] is 0.504 µM; in assay [2], greater than 10 µM.
For `CNC(=O)COc1ccc(Nc2ncc(F)c(Nc3ccc4c(c3)OCCO4)n2)cc1` [R909240, N4-(3,4-Ethylendioxyphenyl)-5-fluoro-[4-(N-methylamino)carbonylmethyleneoxyphenyl]-2,4-pyrimidinediamine], in that order: 0.262 µM and greater than 10 µM.
`CNC(=O)COc1cccc(Nc2ncc(F)c(Nc3cc(OC)cc(OC)c3)n2)c1` [R926796, N4-(3,5-Dimethoxyphenyl)-5-fluoro-N2-[3-(N-methylamino)carbonylmethyleneoxyphenyl]-2,4-pyrimidinediamine]: the 50% inhibitory concentration (IC50) was 0.914 µM in assay [1] and greater than 10 µM in assay [2].
For `CCOC(=O)COc1cccc(Nc2ncc(F)c(Nc3ccc4c(c3)C(=O)OC4)n2)c1` [R940285, N2-[3-Ethoxycarbonylmethyleneoxyphenyl]-N4-(3,3-dihydroisobenzofuranyl-1-one-6-yl)-5-fluoro-2,4-pyrimidinediamine], in that order: 3.5 µM and greater than 10 µM.
The matching figures for `CC1Sc2ccc(Nc3ncc(F)c(Nc4cccc(O)c4)n3)cc2NC1=O` (racemic) [R909263, (+/−)-5-Fluoro-N4-(3-hydroxyphenyl]-N2-(2-methyl-1,4-benzothiazin-3-on-6-yl)pyrimidinediamine]: 0.289 µM and greater than 10 µM.
For `CNC(=O)COc1cccc(Nc2ncc(F)c(Nc3cc(C)ccc3Cl)n2)c1` [R926840, N4-(2-Chloro-5-methylphenyl)-5-fluoro-N2-[3-(N-methylamino)carbonylmethyleneoxyphenyl]-2,4-pyrimidinediamine], in that order: 1.1 µM and greater than 10 µM.
For the compound `OCCOc1ccc(Nc2ncc(F)c(Nc3ccc4c(c3)OCCCO4)n2)cc1` [R935183, 5-Fluoro-N2-[4-(2-hydroxyethoxy)phenyl]-N4-(3,4-propylenedioxyphenyl)-2,4-pyrimidinediamine], the results for the IC50 in assay [1] and in assay [2] were 0.729 µM and greater than 10 µM, respectively.
For `O=C(CNc1cccc(Nc2ncc(F)c(Nc3cccc(NCCO)c3)n2)c1)NCCN1CCOCC1` [R950239, 5-Fluoro-N4-[3-(2-hydroxyethylamino)phenyl]-N2-[3-(N-morpholinoethyleneamino)carbonylmethyleneaminophenyl]-2,4-pyrimidinediamine], in that order: 2.06 µM and greater than 10 µM.
The matching figures for `OCCCn1ncc2cc(Nc3ncc(F)c(Nc4cccc(O)c4)n3)ccc21` [R935304, 5-Fluoro-N4-(3-hydroxyphenyl)-N2-[1-(3-hydroxypropyl)indazoline-5-yl]-2,4-pyrimidinediamine]: 0.188 µM and greater than 10 µM.
For `COC(=O)COc1cccc(Nc2ncc(F)c(Nc3ccc(OC(C)C)cc3)n2)c1` [R945125, 5-Fluoro-N4-(4-isopropoxyphenyl)-N2-(3-methoxycarbonylmethyleneoxyphenyl)-2,4-pyrimidinediamine], in that order: 0.896 µM and greater than 10 µM.
In the case of `CCOC(=O)COc1cccc(Nc2ncc(F)c(Nc3ccc4c(c3)OCCO4)n2)c1` [R926482, N2-(3-Ethoxycarbonylmethyleneoxyphenyl)-N4-(3,4-ethylenedioxyphenyl)-5-fluoro-2,4-pyrimidinediamine], the IC50 in assay [1] was 1.04 µM; in assay [2], greater than 10 µM.
Turning to `CNC(=O)COc1cccc(Nc2ncc(F)c(Nc3cccc(N)c3)n2)c1` [R950262, N4-(3-Aminophenyl)-5-fluoro-N2-[3-(N-methylamino)carbonylmethyleneoxyphenyl]-2,4-pyrimidinediamine HCl salt], the IC50 was 0.285 µM in assay [1] (HCl salt) and greater than 10 µM in assay [2] (HCl salt).
On to `CNC(=O)COc1cccc(Nc2ncc(F)c(Nc3ccc4c(c3)CNCC4)n2)c1` [R926914, 5-Fluoro-N4-(1,2,3,4-tetrahydroisoquin-7-yl)-N2-[3-[(N-methylamino)carbonylmethyleneoxy]phenyl]-2,4-pyrimidinediamine], for which the IC50 is 1.86 µM in assay [1] and greater than 10 µM in assay [2].
The matching figures for `NC(=O)COc1ccc(Nc2nc(Nc3ccc4c(c3)OCCO4)ncc2F)cc1` [R945171, N4-(4-Aminocarbonylmethyleneoxyphenyl)-N2-(3,4-ethylenedioxyphenyl)-5-fluoro-2,4-pyrimidinediamine]: 1.33 µM and greater than 10 µM.
For `CCOC(=O)c1cnc(Nc2ccc(OCC(=O)OC)cc2)nc1Nc1ccc(OCC(=O)OC(C)(C)C)cc1` [R926579, N4-(4-tert-Butoxycarbonylmethyleneoxyphenyl)-5-ethoxycarbonyl-N2-(4-methoxycarbonylmethyleneoxyphenyl)-2,4-pyrimidinediamine], in that order: greater than 10 µM and greater than 10 µM.
The matching figures for `COC(=O)Cn1ncc2cc(Nc3ncc(F)c(Nc4ccc5c(cnn5CC(=O)OC)c4)n3)ccc21` [R935211, N2,N4-Bis[1-(methoxycarbonyl)methyl-indazoline-5-yl]-5-fluoro-2,4-pyrimidinediamine]: 1.24 µM and greater than 10 µM.
Consider `O=C(CNc1cccc(Nc2ncc(F)c(Nc3cccc(NCCO)c3)n2)c1)N1CCNCC1` [R950241, N4-[3-(2-Hydroxyethyleamino)phenyl]-N2-[3-(N-piperazino)-carbonylmethyleneaminophenyl]-5-fluoro-2,4-pyrimidinediamine], for which the IC50 in assay [1] is 3.27 µM; in assay [2], greater than 10 µM.
The matching figures for `OB(O)c1cccc(Nc2ncc(F)c(Nc3cccc(B(O)O)c3)n2)c1` [R926836, N2,N4-Bis(3-boronylphenyl)-5-fluoro-2,4-pyrimidinediamine]: 10 µM and greater than 10 µM.
Regarding `CCOC(=O)COc1ccc(Nc2nc(Nc3ccc(OCC(=O)OCC)cc3)c(N)c(C(=O)OCC)n2)cc1` [R926567, 5-Amino-N2,N4-bis(4-ethoxycarbonylmethyleneoxyphenyl)-6-ethoxycarbonyl-2,4-pyrimidinediamine], the IC50 in assay [1] was 9.3 µM; in assay [2] it was greater than 10 µM.
With `CC1(C)Oc2ccc(Nc3nc(Cl)ncc3F)cc2NC1=O` [Compound R940322], the IC50 in assay [1] and in assay [2] was greater than 10 µM in each case.
Consider `Fc1ccc(Nc2ccnc(Nc3ccc(F)c(Cl)c3)n2)cc1Cl` [R935163, N2,N4-Bis(3-chloro-4-fluoropheny)-2,4-pyrimidinediamine], for which the IC50 in assay [1] and in assay [2] was greater than 10 µM each time.
As for `CNC(=O)COc1cccc(Nc2ncc(F)c(Nc3ccc4c(c3)OC(F)(F)C(F)(F)O4)n2)c1` [R926732, 5-Fluoro-N4-[3,4-(1,1,2,2-tetrafluoroethylendioxy)phenyl]-N2-[3-(N-methylamino)carbonylmethyleneoxyphenyl]-2,4-pyrimidinediamine], the IC50 was 0.444 µM in assay [1] and greater than 10 µM in assay [2].
The matching figures for `CNC(=O)COc1cccc(Nc2ncc(F)c(Nc3cccc(CN)c3)n2)c1` [R940309, N4-(3-Aminomethylenephenyl)-5-fluoro-N2-[3-(methylaminocarbonylmethyleneoxy)phenyl]-2,4-pyrimidinediamine]: 1.13 µM and greater than 10 µM.
For `Fc1cnc(Nc2ccc(OCCN3CCOCC3)cc2)nc1Nc1ccc2c(c1)OCCO2` [R926709, N4-(3,4-Ethylenedioxyphenyl)-5-fluoro-N2-[4-[2-(N-morpholino)ethyleneoxy]phenyl]-2,4-pyrimidinediamine], in that order: 0.858 µM and greater than 10 µM.
The matching figures for `Nc1ccc(Nc2ncc(F)c(Nc3ccc(N)cc3)n2)cc1` [R950122, N2,N4-Bis(4-aminophenyl)-5-fluoro-2,4-pyrimidinediamine]: 3.02 µM and greater than 10 µM.
Consider “N2-(3,4-Ethylenedioxyphenyl)-5-ethoxycarbonyl-4-[N-(L)-phenyl glycinyl ethyl ester)-2-pyrimidineamine [R926536]”, for which the IC50 in assay [1] and in assay [2] was greater than 10 µM each time.
In the case of `Fc1cnc(Nc2ccc3[nH]ncc3c2)nc1Nc1ccc2c(c1)OCCO2` [R935198, N4-(3,4-Ethylenedioxyphenyl)-5-fluoro-N2-(indazoline-5-yl)-2,4-pyrimidinediamine], the results for the concentration for half-maximal inhibition (IC50) in assay [1] and in assay [2] were 0.126 µM and greater than 10 µM, respectively.
For `CNC(=O)COc1cccc(Nc2ncc(F)c(Nc3cccc(Cl)c3)n2)c1` [R926832, N4-(3-Chlorophenyl)-5-fluoro-N2-[3-(N-methylamino)carbonylmethyleneoxyphenyl]-2,4-pyrimidinediamine], in that order: 0.365 µM and greater than 10 µM.
With `CNC(=O)COc1cccc(Nc2ncc(F)c(Nc3ccc4c(c3)OCCO4)n2)c1` [R926826, N4-(3,4-Ethylenedioxyphenyl)-5-fluoro-N2-[3-(N-methylamino)carbonylmethyleneoxyphenyl]-2,4-pyrimidinediamine Trifluoro Acetic Acid Salt], the IC50 is 0.613 µM in assay [1] and greater than 10 µM in assay [2] (Acetic Acid Salt).
For `COC(=O)c1ccc(Cn2cc3ccc(Nc4ncc(F)c(Nc5ccc(OC(C)C)cc5)n4)cc3n2)c(OC)c1` [R935338, 5-Fluoro-N4-(4-isopropoxyphenyl)-N2-[2-(2-methoxy-4-carbomethoxybenzyl)indazoline-6-yl]-2,4-pyrimidinediamine], the IC50 in assay [1] is 0.411 µM; in assay [2], greater than 10 µM.
Consider `CS(=O)(=O)Nc1ccc(Nc2ncc(F)c(Nc3ccc(NS(C)(=O)=O)cc3)n2)cc1` [R950083, N2,N4-Bis[(4-methylsulfonylamino)phenyl]-5-fluoro-2,4-pyrimidinediamine], for which the IC50 in assay [1] and in assay [2] was greater than 10 µM in each case.
Take `CNC(=O)COc1cccc(Nc2ncc(F)c(Nc3cnc4c(c3)OCC(=O)N4)n2)c1` [R945242, 5-Fluoro-N2-(3-methylaminocarbonylmethyleneoxyphenyl)-N4-[2H-pyrido[3,2-b]-1,4-oxazin-3(4H)-one-7-yl]-2,4-pyrimidinediamine]: the IC50 in assay [1] is 0.247 µM; in assay [2], greater than 10 µM.
